{"source": "patent US11291666B2", "about": "“Uses” (INTRA-CELLULAR THERAPIES, INC., priority 2016, dated 2022)", "key": {"BV2 cells [1]": {"test_system": "BV2 cells", "assay": "RT-qPCR of selected genes in BV2 cells with ITI-214, cyclase activators and PKA/PKG inhibitors", "assay_type": "cell-based, mouse", "conditions": "10 μM forskolin, 5 μM DEANO or 100 nM ANP", "protocol": "In a further experiment a group of genes is selected for further analysis by RT-qPCR. For comparison, genes are analyzed which have been implicated in the scientific literature in microglial and astrocyte activation, including genes in the complement pathway.\nAll sample values are normalized to an average of 3 reference genes and to vehicle control (ΔΔCt). The error bars represent the mean+/−SEM (n=4). From left to right, for each cytokine grouping, the bars indicate samples treated with: LPS, 0.1 μM 214+LPS, 0.4 μM 214+LPS, 1.1 μM 214+LPS, 3.3 μM 214+LPS, 10 μM 214+LPS, for each particular gene shown on the X-axis. Significant changes between LPS and 10 μM ITI-214+LPS (A) and Vehicle and 10 μM ITI-214 (B) are marked on the X-axis gene names and are calculated using a one-way ANOVA. * p<0.05, **p<0.01, ***p<0.001, ****p<0.0001.\nIn one particular experiment, BV2 cells are treated with 10 μM forskolin (FSK) to activate adenylyl cyclases, 5 μM DEANO to activate soluble guanylyl cyclase, or 100 nM atrial natriuretic peptide (ANP) to activate particulate guanylyl cyclase. […] Upon combining forskolin with ITI-214 some of the effects of ITI-214 inhibition can be increased. […] However, LIF reverts to LPS-level expression when forskolin is added.\nNote that gene expression levels upon addition of PKA or PKG inhibitor to 10 μM ITI-214 are on the order of those relative to LPS treatment alone were reduced to levels equivalent to 3.3 μM ITI-214."}, "BV2 cells [2]": {"test_system": "BV2 cells", "assay": "RNAseq analysis of LPS-stimulated BV2 cells, differentially expressed transcripts", "assay_type": "cell-based, mouse", "conditions": "for genes significantly affected by this compound but not the other (Compound 214 / Rolipram): LPS-stimulated BV2 cells", "protocol": "(§1) The test compound is added first, the LPS is added one hour later, and the cells and/or media are harvested at five hours from commencement of the experiment.\nRNASeq: Flashfreeze BV2cells, isolate RNA, prepare a library using polyA selection, and conduct 1×50 bp single read sequencing on the Illumina HiSeq 2500 in High Output mode (using V4 chemistry). Genes are mapped to reference genome (GRCm38) using CLC Genomics Server. Number of reads per sample average ˜17 million. Differential gene expression analysis is performed using DESeq2software (Bioconductor.org). Differentially expressed genes (p<0.01, Waldtest) are reported as log 2(fold change)."}, "BV2 cells [3]": {"test_system": "BV2 cells", "assay": "Quantitative PCR of inflammatory cytokine mRNA in LPS-treated BV2 cells", "assay_type": "cell-based, mouse", "protocol": "Levels of IL1β are measured using quantitative PCR of IL1β mRNA. IL1β is considered a marker of inflammation. Results are depicted in FIG. 2 (RQ: relative quantification of changes in gene expression in treated versus control samples; ***p<0.01 vs control, √p<0.01 vs LPS alone; ANOVA with Newman-Keuls post-hoc test).\nBV2 cells are pretreated with compound, ITI-214 or rolipram, a PDE4 inhibitor, then stimulated with 50 ng/ml LPS for 4 hours. Expression levels of TNF, IL1β, Ccl2, and IL6 are measured. Normalized mRNA levels are shown as change from vehicle (ΔΔCt) and compared using a one-way ANOVA. […] The mRNA transcripts for TNF, IL1β, and Ccl2—three of the four cytokines studied in vivo—were elevated in BV2 cells treated with 50 ng/ml LPS.\nas §1\n(§2) RTqPCR: RNA from BV2 cells purified using RNeasyKit (Qiagen) and from mouse tissue using TRIzol (Ambion). TaqMan primer-probe assays from Thermo Fisher. mRNA levels for all conditions are normalized to GAPDH and to vehicle control (ΔΔCt). Data are analyzed statistically using one-way ANOVA with the Bonferroni post-test for multiple comparisons."}, "[4]": {"test_system": "inflammatory gene expression in mouse striatum", "assay": "Inflammatory gene expression in mouse striatum after LPS (Q-PCR)", "assay_type": "in vivo", "conditions": "Striatum Mouse + LPS; initial results", "protocol": "as §2\nThe results are based upon an evaluation of samples using Q-PCR.\nData from a further experiment measuring the effect of PDE1 inhibition on inflammatory gene expression in mouse striatum is depicted in FIG. 7. […] Striatal tissue is isolated and flash frozen, and RNA is extracted. Measurements from RT-qPCR are shown as log 2 fold change (2ΔΔCt). n=4 *p<0.05, **p<0.01, ***p<0.001, ****p<0.0001.\nData from yet another experiment measuring the effect of PDE1 inhibition on inflammatory gene expression in mouse striatum is depicted in FIG. 8. […] Striatal tissue is analyzed for mRNA levels of TNF, IL1β, Ccl2, and IL6. Expression levels are shown as change in Q-PCR signal from vehicle (ΔΔCt) and compared using an ANOVA. * p<0.05, **p<0.01, ***p<0.001."}, "retinal ganglion cells": {"test_system": "retinal ganglion cells", "assay": "Optic nerve injury (optic crush) model", "assay_type": "in vivo, mouse", "conditions": "mice; intraocular injection after optic nerve injury; 14 days; FIG. 12", "protocol": "A PDE1 inhibitory compound is tested in an optic nerve injury model (i.e., the “optic crush” model). The studies described below are carried out using the selective PDE1 inhibitor IC200041, which has the following structure:\nIn this model, optic nerve surgeries are carried out on male mice 8 wk of age (average body weight, 20-26 g) under general anesthesia, as described previously (Yin Y, et al., Oncomodulin links inflammation to optic nerve regeneration. Proc Natl Acad Sci USA. 2009; 106:19587-19592). Following nerve injury, 3 μl of fluid is removed from the eye and a solution containing the PDE1 inhibitory compound is injected intraocularly.\nA total of 4 mouse retinas are treated with the PDE1 inhibitor, and phosphate buffered saline (PBS) is administered to a total of 10 mouse retinas as a control. Mice are typically euthanized with an overdose of anesthesia 14 days after optic nerve injury and are perfused with saline and 4% paraformaldehyde (PFA). These mice are 10 weeks old when killed. Optic nerves and eyes are dissected and postfixed in PFA. […] Axons are counted manually in at least 8 longitudinal sections per case at pre-specified distances from the injury site, and these numbers were converted into the number of regenerating axons at various distances."}, "HL60 cells": {"test_system": "HL60 cells", "assay": "Total cGMP levels in PMA-differentiated HL60 cells with ANP and ionomycin (competitive ELISA)", "assay_type": "cell-based, human", "protocol": "We have shown that there is a synergistic effect between ANP and PDE1 inhibition. An immortalized human pro-myeloid cell line (HL60 from ATCC) is grown, differentiated and harvested as described in Bender, A T, and Beavo, J A, 2006, PNAS 103, 460-465. The cells are grown in HEPES buffered RPMI 1640 medium with penicillin, streptomycin, and 10% fetal bovine serum. Phorbol-12-myristate-13-acetate (PMA), at 100 nM for 3 days, is used to differentiate the HL60 cells into macrophage-like cells. Following differentiation, the cells are incubated with a PDE1 inhibitor or vehicle (DMSO) beginning at time 0. At 40 minutes, 5 μM ionomycin (a calcium ionophore) is added. At 50 minutes, 100 nM ANP was added. At 60 minutes, the cells are harvested. Total cGMP levels are measured using a competitive ELISA (Bender and Beavo, 2006)."}, "[5]": {"conditions": "BV2 cells, Compound 214 at 10 μM, FIG. 4a"}}, "data": [{"compound": "CC[C@H](C)[C@@H]1NC(=O)[C@H](CCCNC(=N)N)NC(=O)[C@H](CC(=O)O)NC(=O)[C@H](CCSC)NC(=O)[C@H](CCCNC(=N)N)NC(=O)CNC(=O)CNC(=O)[C@H](Cc2ccccc2)NC(=O)[C@@H](NC(=O)[C@H](CO)NC(=O)[C@H](CO)NC(=O)[C@H](CCCNC(=N)N)NC(=O)[C@H](CCCNC(=N)N)NC(=O)[C@H](CC(C)C)NC(=O)[C@@H](N)CO)CSSC[C@@H](C(=O)N[C@@H](CC(N)=O)C(=O)N[C@@H](CO)C(=O)N[C@@H](Cc2ccccc2)C(=O)N[C@@H](CCCNC(=N)N)C(=O)N[C@@H](Cc2ccc(O)cc2)C(=O)O)NC(=O)CNC(=O)[C@H](CC(C)C)NC(=O)CNC(=O)[C@H](CO)NC(=O)[C@H](CCC(N)=O)NC(=O)[C@H](C)NC(=O)CNC1=O", "note": "[atrial natriuretic peptide, reference compound]", "values": [{"measurement": "effect of the activator alone on LPS induction of the selected genes", "setting": "BV2 cells [1]", "value": "little or no effect"}]}, {"compound": "COc1ccc(C2CNC(=O)C2)cc1OC1CCCC1", "note": "(stereo not shown) [rolipram, reference compound]", "values": [{"measurement": "mRNA transcripts decreased in the presence of LPS + compound vs. LPS alone", "setting": "BV2 cells [2]; BV2 cells, RNAseq", "value": 209, "unit": "transcripts"}, {"measurement": "transcripts elevated in the presence of LPS + compound vs. LPS alone", "setting": "BV2 cells [2]; BV2 cells, RNAseq", "value": 156, "unit": "transcripts"}, {"measurement": "genes significantly affected by this compound but not the other (Compound 214 / Rolipram)", "setting": "BV2 cells [2]; further RNASeq analysis", "value": 251, "unit": "genes"}, {"measurement": "genes significantly affected by this compound but not the other (Compound 214 / Rolipram)", "setting": "BV2 cells [2]; still a further experiment", "value": 1463, "unit": "genes"}, {"measurement": "Chemokine (C-C) motif Ligand 2 expression (Q-PCR)", "setting": "BV2 cells [3]; BV2 + LPS, initial results", "value": "Down"}, {"measurement": "Interleukin 1 beta expression (Q-PCR)", "setting": "BV2 cells [3]; BV2 + LPS, initial results", "value": "UP UP"}, {"measurement": "Tumor necrosis factor expression (Q-PCR)", "setting": "BV2 cells [3]; BV2 + LPS, initial results", "value": "Down"}, {"measurement": "LPS-induced increase in expression of Ccl2", "setting": "BV2 cells [3]; [5]", "value": "reducing"}, {"measurement": "LPS-induced increase in expression of IL1β", "setting": "BV2 cells [3]; [5]", "value": "increasing"}, {"measurement": "LPS-induced increase in expression of TNFα", "setting": "BV2 cells [3]; [5]", "value": "reducing"}, {"measurement": "Chemokine (C-C) motif Ligand 2 expression (Q-PCR)", "setting": "[4]", "value": "Down"}, {"measurement": "Interleukin 1 beta expression (Q-PCR)", "setting": "[4]", "value": "UP-UP"}, {"measurement": "Interleukin 6 expression (Q-PCR)", "setting": "[4]", "value": "UP-UP"}, {"measurement": "Oncostatin M expression (Q-PCR)", "setting": "[4]", "value": "Down"}, {"measurement": "Tumor necrosis factor expression (Q-PCR)", "setting": "[4]", "value": "Down"}]}, {"compound": "CN1C(=O)c2c(nn(Cc3ccc(-c4ccccn4)cc3)c2Nc2ccccc2)N2C1=N[C@@H]1CCC[C@@H]12", "note": "[IC200041]", "values": [{"measurement": "survival of retinal ganglion cells compared with the PBS control", "setting": "retinal ganglion cells", "value": "highly effective"}]}, {"compound": "CCN(CC)/[N+]([O-])=N/[O-].[Na+]", "note": "[DEANO, reference compound]", "values": [{"measurement": "effect of the activator alone on LPS induction of the selected genes", "setting": "BV2 cells [1]", "value": "little or no effect"}]}, {"compound": "CN1C(=O)c2c(nn(Cc3ccc(C(F)(F)F)cc3)c2Nc2ccccc2)N2C1=N[C@@H]1CCC[C@@H]12", "note": "[Example 20 of U.S. Pat. No. 8,273,750, (6aR,9aS)-3-(phenylamino)-5,6a,7,8,9,9a-hexahydro-5-methyl-2-(4-(trifluoromethyl)-benzyl)-cyclopent[4,5]imidazo[1,2-a]pyrazolo[4,3-e]pyrimidin-4(2H)-one]", "values": [{"measurement": "cGMP level, ANP in combination with the PDE1 inhibitor versus either alone", "setting": "HL60 cells; 100 nM ANP + 100 nM PDE1 inhibitor", "value": "greater"}, {"measurement": "decreasing cGMP signal caused by activation of PDE1 by ionomycin", "setting": "HL60 cells; PDE1 inhibitor + sub-optimal ANP, ionomycin 5 μM", "value": "synergistically prevented"}, {"measurement": "cGMP level, co-treatment with ANP and the PDE1 inhibitor versus ANP and SCH 51866", "setting": "HL60 cells; SCH 51866 used at 5 μM", "value": "much greater"}, {"measurement": "effect of ionomycin on cGMP when combined with ANP and the PDE1 inhibitor", "setting": "HL60 cells; ionomycin 5 μM", "value": "only a weak cGMP lowering effect"}]}]}
